Source: patent US7090874B2, “Ligand for peroxisome proliferator-activated receptor” (Kaneka Corporation, priority 2001, dated 2006)

Assays:
KK-Ay mice = experiment: Effect in KK-Ay model mice of type-II diabetes mellitus (body weight, blood glucose); type: in vivo, mouse; conditions: for Blood Glucose Level / Mouse Body weight: diet with 0.04% pioglitazone or 0.5% curcumin, mean ± SD
Procedure: KK-Ay mice, a model of genetically obese and type-II diabetic animals, were used to evaluate the effect of curcumin. Pioglitazone, a drug for treating diabetes mellitus, was used as a positive control.
KK-Ay mice (females, 6 weeks old) were divided into 3 groups (5 animals per group). By using a normal diet (product of Oriental Yeast Co. Ltd., Table 3) as a base feed, three types of feeds, i.e., a diet with out any additives, with pioglitazone and with curcumin, were prepared. Mice were placed in an environment in which they were freely accessible to a diet without any additives (control group), with pioglitazone (pioglitazone-added group) or with curcumin (curcumin-added group) for 4 weeks. Pioglitazone used was obtained by grinding Actos tablet 30 (30 mg pioglitazone per tablet, Takeda Chemical Industries Ltd.) in an agate mortar. The ground Actos tablet was then added to the normal diet at a dose of 0.04% pioglitazone. Curcumin was added to the normal diet at a dose of 0.5% curcumin.
During feeding, a small amount of blood was collected from the caudal vein of mice every week to determine blood glucose level using a simple bloodglucose level analyzer GLUTESTACE (Sanwa Kagaku Kenkyusho Co., Ltd.).

C57BL/6J mice = experiment: Effect in model mice of diet-induced obesity (adipose tissue weights); type: in vivo, mouse
Procedure: C57BL/6J mice (females, 8 weeks old) were freely accessible to a high fat/high sugar diet (Oriental Yeast Co., Ltd., Table 6) for 8 weeks to obtain dietary obese animals. By using a normal diet (Oriental Yeast Co. Ltd., Table 3) as a base feed, two types of feeds, i.e., a diet without any additives and with 0.5% curcumin, were prepared. Next, said mice were divided into 2 groups (7 animals per group), and each group was freely accessible to a diet without any additives (control group) or with 0.5% curcumin (curcumin group) for 4 weeks. After an overnight fasting, mice were subjected to abdominal section under ether anesthesia to collect blood from the abdominal aorta, and then sacrificed. Then, adipose tissues were collected from the tissues around uterus, kidney and mesentery, and their weights were determined. The sum of the weights of periuterine, perirenal and mesenteric adipose tissues was determined as the total amount of intra-abdominal adipose tissue.

rats = rats which received curcumin; cited from earlier work
[1] = test system: streptozotocin-induced diabetic rats; conditions: diet containing 0.5% curcumin; cited from earlier work
[2] = biological target: T1, mouse PPARγ ligand binding domain (Mus musculus, UniProt P37238); experiment: PPARγ ligand activity: GAL4-mPPARγ LBD chimera luciferase reporter assay in CV-1 cells; type: cell-based; conditions: for PPARγ ligand activities (dependence on concentration): 2-10 μg/ml; for PPARγ ligand activity: relative to untreated control (DMSO)=1.00, mean ± SD, n=4
T1 construct: expressed in transfected cells; host or cells: CV-1 cells (African green monkey kidney)
T1 sequence (P37238 174-475 isoform P37238-2): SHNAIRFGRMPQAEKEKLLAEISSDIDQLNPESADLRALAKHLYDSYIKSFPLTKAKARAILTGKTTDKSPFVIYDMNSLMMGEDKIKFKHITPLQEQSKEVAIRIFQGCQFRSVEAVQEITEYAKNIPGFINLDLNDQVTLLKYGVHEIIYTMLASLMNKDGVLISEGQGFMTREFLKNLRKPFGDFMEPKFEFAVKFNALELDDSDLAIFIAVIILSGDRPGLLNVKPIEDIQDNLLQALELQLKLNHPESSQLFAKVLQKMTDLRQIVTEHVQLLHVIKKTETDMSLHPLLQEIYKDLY
Procedure: CV-1 cells (cultured cells derived from male African green monkey kidney) were inoculated into a 96-well culture plate at 6×10^3 cells/well, and incubated at 37° C. for 24 hours under 5% CO2 conditions. As a medium, DMEM (Dulbecco's Modified Eagle Medium, product of GIBCO) containing 10% FBS (fetal bovine serum), 10 ml/L penicillin-streptomycin (5000 IU/ml and 5000 μg/ml, respectively, product of GIBCO), 37 mg/L ascorbic acid (product of Wako Pure Chemical Industries, Ltd.) was used. Cells were washed with OPTI-MEM (product of GIBCO), a serum-free medium, and transfected with pM-mPPARγ and 4×USAg-luc using LIPOFECTAMINE PLUS™ (product of GIBCO), a reagent for transfection of genes using a cationic lipid. […] The 4×UASg-luc is a reporter plasmid incorporated luciferase gene with 4-time-repeated responsive element (UASg) of GAL4 ligated thereto at the upstream end thereof. At approximately 24 hours after the transfection, the medium was replaced by a medium containing each sample (n=4) and cells were incubated for an additional 2 hours. Each sample used was dissolved in dimethyl sulfoxide (DMSO) and DMSO was used as an untreated control sample. […] Cells were washed with Ca, Mg-containing phosphate buffered saline (PBS+) and added with LUCLITE™ (product of Packard), a reagent for determination of luminescence using luciferase. Then, the luminescent intensity by expressed luciferase was determined in a TOPCOUNT™ Microplate Scintillation/Luminescence Counter (product of Packard).
The luminescent intensity was determined in the control group in the same way as in the test groups, but using pM (a plasmid lacking PPARγ ligand binding domain gene) instead of pM-mPPARγ. The ratio (test group/control group) of the average luminescent intensity between the test and control groups (n=4) was determined for each sample, and the relative activity of test sample. against the untreated control sample was determined as the PPARγ ligand activity of the sample.

[3] = diet-induced obese C57BL/6J mice, 0.5% curcumin diet for 4 weeks, mean ± SD

Compound	Blood Glucose Level (KK-Ay mice; After 1 week)	Mouse Body weight (KK-Ay mice; After 1 week)	Blood Glucose Level (KK-Ay mice; After 2 weeks)	Mouse Body weight (KK-Ay mice; After 2 weeks)	Blood Glucose Level (KK-Ay mice; After 3 weeks)	Mouse Body weight (KK-Ay mice; After 3 weeks)	Blood Glucose Level (KK-Ay mice; After 4 weeks)	Mouse Body weight (KK-Ay mice; After 4 weeks)	Blood Glucose Level (KK-Ay mice; Start of feeding)	Mouse Body weight (KK-Ay mice; Start of feeding)	PPARγ ligand activities (dependence on concentration) [2]	PPARγ ligand activity ([2]; added concentration 2 μg/ml)	PPARγ ligand activity ([2]; added concentration 5 μg/ml)	PPARγ ligand activity ([2]; added concentration 10 μg/ml)	further results
COc1cc(/C=C/C(=O)/C=C(O)/C=C/c2ccc(O)c(OC)c2)ccc1O [Compound 1, Curcumin]	191 ± 18 mg/dL	34.7 ± 1.1 g	222 ± 46 mg/dL	39.8 ± 0.7 g	348 ± 125 mg/dL	42.8 ± 0.9 g	344 ± 105 mg/dL	44.7 ± 1.0 g	139 ± 7 mg/dL	25.5 ± 0.7 g	concentration-dependent	2.36 ± 0.94	3.67 ± 1.06	4.16 ± 1.10	Elevation of blood glucose level compared with control group (KK-Ay mice; 4 weeks feeding): suppressed significantly; Mouse body weight change compared with control group (KK-Ay mice; 4 weeks feeding): without any significant difference; Body weight compared with control group (C57BL/6J mice): no significant difference; Weights of periuterine, perirenal, mesenteric and intra-abdominal adipose tissues compared with control group (C57BL/6J mice): significantly reduced; Adipose tissue per body weight: Mesenteric adipose tissue (c) (C57BL/6J mice; [3]): 0.39 ± 0.11 % by weight; Adipose tissue per body weight: Perirenal adipose tissue (b) (C57BL/6J mice; [3]): 0.46 ± 0.15 % by weight; Adipose tissue per body weight: Periuterine adipose tissue (a) (C57BL/6J mice; [3]): 0.8 ± 0.21 % by weight; Body weight after feeding (C57BL/6J mice; [3]): 22.9 ± 0.9 g; Adipose tissue per body weight: Intra-abdominal adipose tissue (a + b + c) (C57BL/6J mice; sum of periuterine, perirenal and mesenteric, diet-induced obese C57BL/6J mice, 0.5% curcumin diet for 4 weeks, mean ± SD): 1.65 ± 0.42 % by weight; Activity of acyl-CoA oxidase (β-oxidation promotive enzyme) (rats): enhanced; Triglyceride accumulation in the liver (rats): inhibition; Cholesterol, triglyceride and phospholipid levels in blood [1]: reduced; Renal lesions associated with diabetes mellitus [1]: amelioration
CCc1ccc(CCOc2ccc(CC3SC(=O)NC3=O)cc2)nc1 (stereo not drawn) [Pioglitazone, reference compound]	163 ± 23 mg/dL	36.7 ± 1.0 g	182 ± 9 mg/dL	39.9 ± 1.2 g	166 ± 18 mg/dL	42.3 ± 1.2 g	153 ± 21 mg/dL	43.8 ± 1.4 g	151 ± 9 mg/dL	26.9 ± 1.0 g	–	–	–	–	–
Bisdemethoxycurcumin [Compound 3]	–	–	–	–	–	–	–	–	–	–	concentration-dependent	1.88 ± 0.33	3.55 ± 0.38	4.08 ± 0.46	–
Demethoxycurcumin [Compound 2]	–	–	–	–	–	–	–	–	–	–	concentration-dependent	2.17 ± 0.39	4.25 ± 0.77	4.41 ± 0.35	–
